In this assay the target is T1, full-length human Mineralocorticoid Receptor (MR) (Homo sapiens, UniProt P08235).
T1 construct: host or cells: PathHunter CHO-K1 cells
T1 sequence (P08235 1-984): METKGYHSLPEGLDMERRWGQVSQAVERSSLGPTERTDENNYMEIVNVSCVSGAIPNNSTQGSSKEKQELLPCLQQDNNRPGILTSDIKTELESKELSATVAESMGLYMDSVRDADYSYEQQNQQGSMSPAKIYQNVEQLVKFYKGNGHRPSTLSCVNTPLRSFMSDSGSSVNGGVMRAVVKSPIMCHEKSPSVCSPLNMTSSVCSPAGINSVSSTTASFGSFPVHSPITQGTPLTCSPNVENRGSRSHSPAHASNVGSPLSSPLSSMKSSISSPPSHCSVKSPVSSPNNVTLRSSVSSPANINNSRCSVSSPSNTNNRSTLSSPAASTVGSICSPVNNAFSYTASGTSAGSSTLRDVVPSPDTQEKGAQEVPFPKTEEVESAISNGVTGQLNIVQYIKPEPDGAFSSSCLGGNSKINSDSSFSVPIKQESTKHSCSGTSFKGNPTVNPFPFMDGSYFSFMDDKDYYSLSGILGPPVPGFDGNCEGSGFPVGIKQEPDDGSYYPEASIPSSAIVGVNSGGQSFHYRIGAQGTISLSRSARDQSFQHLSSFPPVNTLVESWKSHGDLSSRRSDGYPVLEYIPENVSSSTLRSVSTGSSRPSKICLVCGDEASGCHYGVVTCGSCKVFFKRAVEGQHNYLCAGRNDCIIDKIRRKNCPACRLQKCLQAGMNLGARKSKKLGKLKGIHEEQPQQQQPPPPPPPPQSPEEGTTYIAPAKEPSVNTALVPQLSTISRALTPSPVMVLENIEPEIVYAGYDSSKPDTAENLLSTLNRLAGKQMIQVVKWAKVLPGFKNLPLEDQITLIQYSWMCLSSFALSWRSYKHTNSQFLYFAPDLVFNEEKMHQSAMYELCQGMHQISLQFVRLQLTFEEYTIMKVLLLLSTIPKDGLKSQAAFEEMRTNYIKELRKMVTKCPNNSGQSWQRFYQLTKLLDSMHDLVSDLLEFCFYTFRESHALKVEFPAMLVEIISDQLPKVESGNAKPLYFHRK
Description: human MR NH Pro assay (PathHunter Protein:Protein interaction assay), MR antagonist activity. Type of assay: cell-based. The source says: The activity of the compounds of the present invention regarding mineralocorticoid receptor antagonism can be evaluated using the following assay.
Assessment of MR Potency in HMR NH Pro Assay
The human MR NH Pro assay is a commercially available PathHunter™ Protein:Protein interaction assay (DiscoveRx; http://www.discoverx.com/nhrs/prod-nhrs.php) that measures the ability of compounds to antagonize full-length human Mineralocorticoid Receptor (MR) binding to a coactivator peptide.
6. Test compounds are titrated starting at 4.4 mM, 10-point titration in 1:3 dilution.
3. Add 5 μL 6× agonist (final aldosterone concentration should be about 0.3 nM to about 1.0 nM) to all wells (using the PlateMate Plus.)
• (ThermoFisher) (except those wells in columns 23 and 24) 4. Add 5 uL of assay media to all wells in column 23 and 24. 5. Incubate 6 hrs at 37° C., 5% CO2. 6. Add 15 uL 3× DiscoveRx detection reagent to each well. 7. Incubate 1 hour at room temperature (keep plates stored in the dark). 8. Read plates on Envision (PerkinElmer) luminesence plate reader and analyze using ADA.

The mark [1] stands for this setting: PathHunter CHO-K1 cells overexpressing human MR, aldosterone about 0.3 nM, 6 hours at 37° C., luminescence, read-out: Primary Assay IP rating (IP = inflection point for a given dose-response titration curve).

Read-outs that look alike come from different tables or passages of the source.

`CCC(CC#N)(c1ccc(Cl)cc1)n1ccc2c(NS(C)(=O)=O)cc(F)cc21` (single isomer, unassigned) [Compound 124, N-(1-(2-(4-chlorophenyl)-1-cyanobutan-2-yl)-6-fluoro-1H-indol-4-yl)methanesulfonamide]: the IC50 under setting [1] lay in the range of 0.1 to 0.5 µM. The same measure, in the same setting: the same measure for `CCC(CC#N)(c1ccc(Cl)cc1)n1ccc2c(NS(C)(=O)=O)cc(F)cc21` (single isomer, unassigned) [Compound 125, N-(1-(2-(4-chlorophenyl)-1-cyanobutan-2-yl)-6-fluoro-1H-indol-4-yl)methanesulfonamide]: under 0.1 µM; for `CCC(CCC#N)(c1ccc(Cl)cc1)n1ncc2c(NS(C)(=O)=O)cccc21` (single isomer, unassigned) [Compound 137, N-(1-(3-(4-chlorophenyl)-1-cyanopentan-3-yl)-1H-indazol-4-yl)methanesulfonamide]: 0.1 to 0.5 µM.

Consider `CCC(CCC#N)(c1ccc(Cl)cc1)n1ncc2c(NS(C)(=O)=O)cccc21` (single isomer, unassigned) [Compound 138, N-(1-(3-(4-chlorophenyl)-1-cyanopentan-3-yl)-1H-indazol-4-yl)methanesulfonamide], for which the IC50 under setting [1] was under 0.1 µM. Same read-out and setting: the same measure for `CCC(CCC#N)(c1ccc(Cl)cc1)n1ccc2c(NS(C)(=O)=O)cccc21` (single isomer, unassigned) [Compound 140, N-(1-(3-(4-chlorophenyl)-1-cyanopentan-3-yl)-1H-indol-4-yl)methanesulfonamide]: under 0.1 µM. Still for that read-out and setting: the figure for `CCC(CCC#N)(c1ccc(C(F)(F)F)cc1)n1ncc2c(NS(C)(=O)=O)cccc21` (single isomer, unassigned) [Compound 141, N-(1-(1-cyano-3-(4-(trifluoromethyl)phenyl)pentan-3-yl)-1H-indazol-4-yl)methanesulfonamide] is under 0.1 µM. Same read-out and setting: the same measure for `CCC(CCC#N)(c1ccc(Cl)cc1)n1ccc2c(NS(C)(=O)=O)cc(F)cc21` (single isomer, unassigned) [Compound 142, N-(1-(3-(4-chlorophenyl)-1-cyanopentan-3-yl)-6-fluoro-1H-indol-4-yl)methanesulfonamide]: under 0.1 µM. On to `CCC(CCC#N)(c1ccc(Cl)cc1)n1ccc2c(NS(C)(=O)=O)cc(F)cc21` (single isomer, unassigned) [Compound 143, N-(1-(3-(4-chlorophenyl)-1-cyanopentan-3-yl)-6-fluoro-1H-indol-4-yl)methanesulfonamide], for which, under setting [1], the IC50 was under 0.1 µM.

For the compound `CCC(C(=O)CC#N)(c1ccc(Cl)cc1)n1ccc2c(NS(C)(=O)=O)cccc21` (single isomer, unassigned) [Compound 146, N-(1-(3-(4-Chlorophenyl)-1-cyano-2-oxopentan-3-yl)-1H-indol-4-yl)methanesulfonamide], the IC50 under setting [1] was under 0.1 µM. Compound `CCC(C(=O)NCCCl)(c1ccc(Cl)cc1)n1ccc2c(NS(C)(=O)=O)cccc21` (single isomer, unassigned) [Compound 148, N-(2-chloroethyl)-2-(4-chlorophenyl)-2-(4-(methylsulfonamido)-1H-indol-1-yl)butanamide] registered an IC50 of 0.1 to 0.5 µM. On to `CCC(c1ccc(Cl)cc1)(c1nc(C)no1)n1ccc2c(NS(C)(=O)=O)cccc21` (single isomer, unassigned) [Compound 150, N-(1-(1-(4-chlorophenyl)-1-(3-methyl-1,2,4-oxadiazol-5-yl)propyl)-1H-indol-4-yl)methanesulfonamide], for which the IC50 under setting [1] was under 0.1 µM. For the compound `CCc1noc(C(CC)(c2ccc(Cl)cc2)n2ccc3c(NS(C)(=O)=O)cccc32)n1` (single isomer, unassigned) [Compound 151, N-(1-(1-(4-chlorophenyl)-1-(3-ethyl-1,2,4-oxadiazol-5-yl)propyl)-1H-indol-4-yl)methanesulfonamide], the IC50 under setting [1] is under 0.1 µM.

Take `CCC(C#CC#N)(c1ccc(Cl)cc1)n1ccc2c(NS(C)(=O)=O)cccc21` (single isomer, unassigned) [Compound 155, N-(1-(3-(4-chlorophenyl)-1-cyanopent-1-yn-3-yl)-1H-indol-4-yl)methanesulfonamide]: the IC50 under setting [1] is under 0.1 µM.

Regarding `CCC(CCO)(c1ccc(Cl)cc1)n1ccc2c(NS(C)(=O)=O)cccc21` (single isomer, unassigned) [Compound 160, N-(1-(3-(4-Chlorophenyl)-1-hydroxypentan-3-yl)-1H-indol-4-yl)methanesulfonamide], under setting [1], the IC50 is under 0.1 µM. Same read-out and setting: the same measure for `CCC(CCO)(c1ccc(Cl)cc1)n1ccc2c(NS(C)(=O)=O)cccc21` (single isomer, unassigned) [Compound 161, N-(1-(3-(4-Chlorophenyl)-1-hydroxypentan-3-yl)-1H-indol-4-yl)methanesulfonamide]: under 0.1 µM. Same read-out and setting: the same measure for `CCC(c1ccc(Cl)cc1)(C(C)N)n1ccc2c(NS(C)(=O)=O)cccc21` (single isomer, unassigned) [Compound 176, N-(1-(2-amino-3-(4-chlorophenyl)pentan-3-yl)-1H-indol-4-yl)methanesulfonamide]: under 0.1 µM; for `CCn1nnc(C(CC)(c2ccc(Cl)cc2)n2ccc3c(NS(C)(=O)=O)cccc32)n1` (single isomer, unassigned) [Compound 179, N-(1-(1-(4-chlorophenyl)-1-(2-ethyl-2H-tetrazol-5-yl)propyl)-1H-indol-4-yl)methane sulfonamide]: under 0.1 µM. As to `CCC(CCC(F)(F)F)(c1ccc(Cl)cc1)n1ccc2c(NS(C)(=O)=O)cccc21` (single isomer, unassigned) [Compound 180, N-(1-(3-(4-chlorophenyl)-6,6,6-trifluorohexan-3-yl)-1H-indol-4-yl)methane sulfonamide], under setting [1], the IC50 is under 0.1 µM. Same read-out and setting: the figure for `COC(=O)C(c1ccc(Cl)cc1)n1ccc2c([N+](=O)[O-])cccc21` (stereo not shown) [Compound 1, methyl (4-chlorophenyl)(4-nitro-1H-indol-1-yl)acetate] is 0.5 to 5 µM; for `COC(=O)C(c1ccc(F)cc1Cl)n1ccc2c([N+](=O)[O-])cccc21` (stereo not shown) [Compound 2, methyl (2-chloro-4-fluorophenyl)(4-nitro-1H-indol-1-yl)acetate] it is 0.1 to 0.5 µM. As to `COC(=O)C(c1ccc(Cl)cc1Cl)n1ccc2c([N+](=O)[O-])cccc21` (stereo not shown) [Compound 3, methyl (2,4-dichlorophenyl)(4-nitro-1H-indol-1-yl)acetate], the IC50 under setting [1] fell in the range of 0.1 to 0.5 µM. Still for that read-out and setting: the figure for `COC(=O)C(c1cccc(Br)c1)n1ccc2c([N+](=O)[O-])cccc21` (stereo not shown) [Compound 4, methyl (3-bromophenyl)(4-nitro-1H-indol-1-yl)acetate] is 0.5 to 5 µM.

As for `COC(=O)C(c1ccc(OC)cc1)n1ccc2c([N+](=O)[O-])cccc21` (stereo not shown) [Compound 5, methyl (4-methoxyphenyl)(4-nitro-1H-indol-1-yl)acetate], the IC50 under setting [1] is 0.5 to 5 µM. Same read-out and setting: the figure for `CC[C@](C#N)(c1ccc(Cl)cc1)n1ccc2c(NS(C)(=O)=O)cccc21` [Compound 5a, (R)—N-{1-[1-(4-chlorophenyl)-1-cyanopropyl]-1H-indol-4-yl}methanesulfonamide] is under 0.1 µM; for `COC(=O)C(c1ccc(F)cc1Cl)n1ccc2cc(C#N)ccc21` (stereo not shown) [Compound 11, methyl (2-chloro-4-fluorophenyl)(5-cyano-1H-indol-1-yl)acetate] it is 0.5 to 5 µM. Still for that read-out and setting: the same measure for `COC(=O)C(c1ccc(F)cc1Cl)n1ccc2cc(Cl)ccc21` (stereo not shown) [Compound 12, methyl (2-chloro-4-fluorophenyl)(5-chloro-1H-indol-1-yl)acetate]: 0.5 to 5 µM. As to `COC(=O)C(c1ccc(F)cc1Cl)n1ccc2cc(F)ccc21` (stereo not shown) [Compound 13, methyl (2-chloro-4-fluorophenyl)(5-fluoro-1H-indol-1-yl)acetate], the IC50 under setting [1] lay in the range of 0.5 to 5 µM.

For the compound `COC(=O)C(c1ccc(F)cc1Cl)n1ccc2ccc(Cl)cc21` (stereo not shown) [Compound 14, methyl (2-chloro-4-fluorophenyl)(6-chloro-1H-indol-1-yl)acetate], the IC50 under setting [1] fell in the range of 0.5 to 5 µM.

Values taken from patent publication US8933113B2 (Merck Sharp & Dohme Corp., priority 2011, dated 2015).
